Source: patent publication US10647672B2, “Modulators of cell adhesion, methods and compositions therefor” (Zonula Incorporated, priority 2017, dated 2020)

Test system: Myeloma cells MM.1S
Experiment: multiple myeloma cell viability, high content screening of live cells
Type: cell-based
Conditions: 24 h post-treatment
Protocol: Myeloma cells MM.1S (American Type Culture Collection, Manassas, Va., USA) were cultured in RPMI-1640 medium supplemented with 10% fetal bovine serum (Thermo Fisher Scientific, Waltham, Mass., USA), 100 U/mL of penicillin, and […] of streptomycin. The cells were grown at 37° C. in a humidified incubator with 5% CO2.
In these experiments, MM.1S cells were pre-labeled with CellTrace Violate (Thermo Fisher Scientific), plated on 96-well plates (1.5×10^5 cells/well) and treated with varying concentrations of compound 15 (1-100 μM) or DMSO (vehicle control). High content screening (CellInsight CX5, Thermo Fisher Scientific) was utilized to quantify the number of live cells (i.e. calcein AM+ cells) 24 h post-treatment. FIG. 13 presents photomicrographs (upper panel) and quantitative data (lower panel) of cells treated with compound 15.

Compound: COc1ccc(OC[C@@H](O)CNC2CCN(C[C@H](O)COc3ccc(Cl)c(Cl)c3)CC2)cc1 [Compound 15, (S)-1-(3,4-Dichlorophenoxy)-3-(4-((S)-2-hydroxy-3-(4-methoxyphenoxy)propylamino)piperidin-1-yl)propan-2-ol]
- number of live cells (calcein AM+) on the substratum (10 μM): caused a decrease in the number of live cells
- number of live cells (calcein AM+) on the substratum (100 μM): caused a decrease in the number of live cells
